The nature of data set [1]: Bidirectional permeability assay (Caco-2 cells). In kind it is in vitro ADME. As to conditions: human, 10 μM in FaSSIF buffer, 120 minutes at 37° C.; for Papp A→B at 120 min, 10 µM: absorptive direction (A2B); for Papp B→A at 120 min, 10 µM: secretory direction (B2A). Here is the method: Bidirectional Permeability Assay (Caco-2 Cells)
Caco-2 cells (Evotec) were seeded at a density of 70,000 cells/well in Millicell© 24-well cell culture insert plates and maintained in an incubator (37° C., 5% CO2, 95% RH) for 21 days with media change on alternate days.
Stock solutions (10 mM) of the test compounds, atenolol (low permeability marker), propranolol (high permeability marker) and digoxin (substrate for P-gp transport pathway) were prepared in dimethylsulfoxide (DMSO). An intermediate stock solution (1 mM) was prepared by diluting 10 μL of 10 mM master stock solution with 90 μL of neat DMSO. A working stock solution (10 μM) was prepared by diluting 50 μL of 1 mM with 4950 μL of FaSSIF buffer. Post addition of compounds to the FaSSIF, samples were subjected to sonication for 2 hours, and centrifuged at 4000 RPM for 30 minutes at 37° C. The 4 mL of resultant supernatant was directly used in the assay. The final DMSO concentration in the transport experiments was 1%.
On the day of assay, Caco-2 monolayers were washed twice with transport buffer (HBSS, pH 7.4) and pre-incubated for 30 min (37° C., 5% CO2, 95% RH) in an incubator. The electrical resistance of the monolayers was measured with a Millicell®-ERS system. Monolayers with trans-epithelial electrical resistance (TEER) values greater than 350 ohm·cm^2 were selected for the assay.
The assay was conducted in absorptive direction (A2B) and secretory (B2A) directions. Transport experiments were initiated by addition of transport assay buffer (FaSSIF buffer prepared in HBSS) consisting of compounds to the donor compartment (apical chamber A-B; basolateral chamber B-A) in duplicate (n=2) wells. Drug free HBSS buffer (pH 7.4) containing 1% bovine serum albumin (BSA) was introduced to the receiver (A-B-basolateral; B-A-Apical) compartments. The volumes of apical and basolateral compartments were 0.4 and 0.8 mL, respectively. After adding dosing solution, plates were incubated in an incubator for 120 minutes at 37° C. After 120 minutes, donor and receiver samples were collected and matrix matched (1:1, 30 μL study sample+30 μL blank buffer) with the opposite buffer. Dosing samples matrix matched (1:1, 30 μL study sample+30 μL blank buffer) with the opposite buffer. Samples were processed by adding acetonitrile containing internal standard (60 μL study sample+200 μL acetonitrile containing internal standard—Tolbutamide, 500 ng/mL). Samples were vortexed and centrifuged at 4000 rpm for 10 minutes. The obtained supernatant (100 μL) was diluted with 100 μL of water and transferred to fresh 96 well plates. The concentration of compounds in the samples was analyzed by liquid chromatography tandem mass spectrometry (LC-MS/MS) method using discovery grade bio-analytical method, as applicable.
The mean apparent permeability (Papp,×10^−6 cm/sec) of the test compounds, atenolol, propranolol and digoxin were calculated as follows:
where dq/dt=rate of transport (rate of transport of compound in the receiver compartment), C0=initial concentration in the donor compartment, A=surface area of the effective filter membrane.

In a further data set the target is T1, hLBAT (Homo sapiens, UniProt Q14973).
T1 construct: expressed in transfected cells; kept under Geneticin selection
T1 sequence (Q14973 1-349): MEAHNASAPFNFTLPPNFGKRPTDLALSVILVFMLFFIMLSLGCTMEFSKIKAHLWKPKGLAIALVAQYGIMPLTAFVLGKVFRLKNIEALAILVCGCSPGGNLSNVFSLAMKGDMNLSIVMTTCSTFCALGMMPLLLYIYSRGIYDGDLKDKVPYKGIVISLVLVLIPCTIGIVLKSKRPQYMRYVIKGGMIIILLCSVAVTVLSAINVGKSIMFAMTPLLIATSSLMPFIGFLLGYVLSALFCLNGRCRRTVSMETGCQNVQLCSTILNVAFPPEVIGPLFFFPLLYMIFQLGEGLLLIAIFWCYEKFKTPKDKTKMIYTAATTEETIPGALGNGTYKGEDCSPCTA
The data set can be described thus: LBAT (h/m) assay: 3H-taurocholic acid uptake in human LBAT-overexpressing cells. Format: cell-based. The conditions noted are these: 0.3 μM 3H-taurocholic acid + 7.5 μM cold taurocholic acid, 20 minutes at 37° C. In short, it runs like this:
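Human or mouse LBAT-overexpressing cells given 10-point inhibitor series with 0.3 μM 3H-taurocholic acid plus cold taurocholic acid (7.5 μM human, 25 μM mouse), 0.2% DMSO, for 20 min at 37° C. Stopped on ice, washed with 1 mM unlabelled taurocholic acid; uptake measured by scintillation counting.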

`CCCCC1(CC)CN(c2ccccc2)c2cc(SC)c(CSCC(=O)O)cc2S(=O)(=O)C1` (single isomer, unassigned) [2, enantiomer 1]: in data set [1], the Papp A→B at 120 min, 10 µM worked out at 7.5 ×10⁻⁶ cm/s and the Papp B→A at 120 min, 10 µM is 9.3 ×10⁻⁶ cm/s. Also, the IC50 on hLBAT came out at 2.02 µM.
In data set [1], `CCCCC1(C)CN(c2ccccc2)c2cc(SC)c(CSCC(=O)O)cc2S(=O)(=O)C1` (single isomer, unassigned) [5, enantiomer 1] had an apparent permeability from apical to basolateral (Papp A→B) at 120 min, 10 µM of 29.3 ×10⁻⁶ cm/s and a Papp B→A at 120 min, 10 µM of 25.3 ×10⁻⁶ cm/s. At hLBAT, the half-inhibitory concentration (IC50) amounted to 6 µM.
In the case of `CCCCC1(CC)CN(c2ccc(F)cc2)c2cc(SC)c(CSCC(=O)O)cc2S(=O)(=O)C1` (single isomer, unassigned) [7, enantiomer 1], in data set [1], the Papp A→B at 120 min, 10 µM was determined as 24.3 ×10⁻⁶ cm/s and the Papp B→A at 120 min, 10 µM turned out to be 21.3 ×10⁻⁶ cm/s. Further, on hLBAT, the IC50 worked out at 5.05 µM.

The record behind these values is patent publication US20240067617A1 (Albireo AB, priority 2022, published 2024).
